Molecules are shown by their SMILES.

For one test, the target named is T1, PD-1/PD-L1 (Homo sapiens, UniProt Q9NZQ7).
T1 construct: made in house; host or cells: HEK293T
T1 sequence (Q9NZQ7 with tags, fused parts or gaps): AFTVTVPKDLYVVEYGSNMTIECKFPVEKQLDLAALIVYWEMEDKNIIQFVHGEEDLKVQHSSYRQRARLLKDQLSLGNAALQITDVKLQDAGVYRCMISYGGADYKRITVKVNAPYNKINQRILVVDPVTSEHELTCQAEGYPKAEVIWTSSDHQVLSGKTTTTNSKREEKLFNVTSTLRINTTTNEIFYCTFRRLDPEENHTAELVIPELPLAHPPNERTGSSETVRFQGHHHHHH
Nature of the test: PD-1/PD-L1 Homogenous Time-Resolved Fluorescence (HTRF) binding assay. To be noted: PD-L1-His 10 nM, PD-1-Ig 20 nM; numeric IC50; read-out: Range or IC50. Here is the method: The ability of the compounds of formula (I) to bind to PD-L1 was investigated using a PD-1/PD-L1 Homogenous Time-Resolved Fluorescence (HTRF) binding assay.
Homogenous Time-Resolved Fluorescence (HTRF) Binding Assay.
All binding studies were performed in an HTRF assay buffer consisting of dPBS supplemented with 0.1% […] bovine serum albumin and 0.05% (v/v) Tween-20. […] HTRF detection was achieved using europium crypate-labeled anti-Ig (1 nM final) and allophycocyanin (APC) labeled anti-His (20 nM final). Antibodies were diluted in HTRF detection buffer and 5 μl was dispensed on top of the binding reaction. […] Additional binding assays were established between the human proteins PD-1-Ig/PD-L2-His (20 & 5 nM, respectively) and CD80-His/PD-L1-Ig (100 & 10 nM, respectively). […]
In general terms: In TR-FRET formats the signal depends on donor and acceptor labels being close together.
What is called IC50 is the concentration that inhibits the measured activity by half. With `Cc1c(COc2cc(OCc3cncc(C#N)c3)c(CN3CCCC[C@H]3C(=O)O)cc2Cl)cccc1-c1cccc(OCC(=O)N2CC[C@H](O)C2)c1` [Example 1005, (S)-1-(5-chloro-2-((5-cyanopyridin-3-yl)methoxy)-4-((3′-(2-((S)-3-hydroxypyrrolidin-1-yl)-2-oxoethoxy)-2-methyl-[1,1′-biphenyl]-3-yl)methoxy)benzyl)piperidine-2-carboxylic Acid], the IC50 worked out at 37 nM.
Take `Cc1c(COc2cc(OCc3cncc(C#N)c3)c(CN3CCCC[C@H]3C(=O)O)cc2Cl)cccc1-c1cccc(OCC(=O)N2CC[C@@H](O)C2)c1` [Example 1007, (S)-1-(5-chloro-2-((5-cyanopyridin-3-yl)methoxy)-4-((3′-(2-((R)-3-hydroxypyrrolidin-1-yl)-2-oxoethoxy)-2-methyl-[1,1′-biphenyl]-3-yl)methoxy)benzyl)piperidine-2-carboxylic Acid]: the IC50 was found to be 26 nM.

The same test, now with this note: PD-L1-His 10 nM, PD-1-Ig 20 nM; value given as range class; read-out: Range or IC50.
Take `Cc1c(COc2cc(OCc3cncc(C#N)c3)c(CN[C@](C)(CO)C(=O)O)cc2Cl)cccc1-c1cccc(OCCCN2CCC(O)C2)c1C(F)(F)F` (stereo in doubt) [Example 3013, (R)-2-((5-chloro-2-((5-cyanopyridin-3-yl)methoxy)-4-((3′-(3-((R)-3-hydroxypyrrolidin-1-yl)propoxy)-2-methyl-2′-(trifluoromethyl)-[1,1′-biphenyl]-3-yl)methoxy)benzyl)amino)-3-hydroxy-2-methylpropanoic Acid]: the IC50 was in the range of 0.21 to 10 nM.
Turning to `Cc1c(COc2cc(OCc3cncc(C#N)c3)c(CN3CCCC[C@H]3C(=O)O)cc2Cl)cccc1-c1cccc(OCCCN2CCC(O)C2)c1C(F)(F)F` (stereo in doubt) [Example 3014, (S)-1-(5-chloro-2-((5-cyanopyridin-3-yl)methoxy)-4-((3′-(3-((R)-3-hydroxypyrrolidin-1-yl)propoxy)-2-methyl-2′-(trifluoromethyl)-[1,1′-biphenyl]-3-yl)methoxy)benzyl)piperidine-2-carboxylic Acid], the IC50 lay within 10 to 100 nM.
Same read-out and setting: under `Cc1c(COc2cc(OCc3cncc(C#N)c3)c(CN[C@H](CO)C(=O)O)cc2Cl)cccc1-c1cccc(OCCN2CCOCC2)c1` [Example 1001, (R)-2-((5-chloro-2-((5-cyanopyridin-3-yl)methoxy)-4-((2-methyl-3′-(2-morpholinoethoxy)-[1,1′-biphenyl]-3-yl)methoxy)benzyl)amino)-3-hydroxypropanoic Acid] stands 10 to 100 nM; under `Cc1c(COc2cc(OCc3cncc(C#N)c3)c(CN[C@@](C)(CO)C(=O)O)cc2Cl)cccc1-c1cccc(OCCN2CCOCC2)c1` [Example 1002, (S)-2-((5-chloro-2-((5-cyanopyridin-3-yl)methoxy)-4-((2-methyl-3′-(2-morpholinoethoxy)-[1,1′-biphenyl]-3-yl)methoxy)benzyl)amino)-3-hydroxy-2-methylpropanoic Acid], 10 to 100 nM; under `Cc1c(COc2cc(OCc3cncc(C#N)c3)c(CN[C@H](CO)C(=O)O)cc2Cl)cccc1-c1cccc(OCC(=O)N2CC[C@H](O)C2)c1` [Example 1003, (R)-2-((5-chloro-2-((5-cyanopyridin-3-yl)methoxy)-4-((3′-(2-((S)-3-hydroxypyrrolidin-1-yl)-2-oxoethoxy)-2-methyl-[1,1′-biphenyl]-3-yl)methoxy)benzyl)amino)-3-hydroxypropanoic Acid], 10 to 100 nM.
Consider `Cc1c(COc2cc(OCc3cncc(C#N)c3)c(CN[C@@](C)(CO)C(=O)O)cc2Cl)cccc1-c1cccc(OCC(=O)N2CC[C@H](O)C2)c1` [Example 1004, (S)-2-((5-chloro-2-((5-cyanopyridin-3-yl)methoxy)-4-((3′-(2-((S)-3-hydroxypyrrolidin-1-yl)-2-oxoethoxy)-2-methyl-[1,1′-biphenyl]-3-yl)methoxy)benzyl)amino)-3-hydroxy-2-methylpropanoic Acid], for which the IC50 is 10 to 100 nM.
Take `Cc1c(COc2cc(OCc3cncc(C#N)c3)c(CN[C@H](CO)C(=O)O)cc2Cl)cccc1-c1cccc(OCC(=O)N2CC[C@@H](O)C2)c1` [Example 1006, (R)-2-((5-chloro-2-((5-cyanopyridin-3-yl)methoxy)-4-((3′-(2-((R)-3-hydroxypyrrolidin-1-yl)-2-oxoethoxy)-2-methyl-[1,1′-biphenyl]-3-yl)methoxy)benzyl)amino)-3-hydroxypropanoic Acid]: the IC50 was in the range of 10 to 100 nM.
On the same count and under the same terms, to `Cc1c(COc2cc(OCc3cncc(C#N)c3)c(CN3C[C@@H](O)C[C@H]3C(=O)O)cc2Cl)cccc1-c1cccc(OCC(=O)N2CC[C@@H](O)C2)c1` [Example 1008, (2S,4S)-1-(5-chloro-2-((5-cyanopyridin-3-yl)methoxy)-4-((3′-(2-((R)-3-hydroxypyrrolidin-1-yl)-2-oxoethoxy)-2-methyl-[1,1′-biphenyl]-3-yl)methoxy)benzyl)-4-hydroxypyrrolidine-2-carboxylic Acid] belongs 10 to 100 nM; to `Cc1c(COc2cc(OCc3cncc(C#N)c3)c(CN[C@H](CO)C(=O)O)cc2Cl)cccc1-c1cccc(OCCC(=O)N2CC[C@@H](O)C2)c1` [Example 1009, (R)-2-((5-chloro-2-((5-cyanopyridin-3-yl)methoxy)-4-((3′-(3-((R)-3-hydroxypyrrolidin-1-yl)-3-oxopropoxy)-2-methyl-[1,1′-biphenyl]-3-yl)methoxy)benzyl)amino)-3-hydroxypropanoic Acid], 0.21 to 10 nM; to `Cc1c(COc2cc(OCc3cncc(C#N)c3)c(CN[C@@](C)(CO)C(=O)O)cc2Cl)cccc1-c1cccc(OCCC(=O)N2CC[C@@H](O)C2)c1` [Example 1010, (S)-2-((5-chloro-2-((5-cyanopyridin-3-yl)methoxy)-4-((3′-(3-((R)-3-hydroxypyrrolidin-1-yl)-3-oxopropoxy)-2-methyl-[1,1′-biphenyl]-3-yl)methoxy)benzyl)amino)-3-hydroxy-2-methylpropanoic Acid], 0.21 to 10 nM.
On to `Cc1c(COc2cc(OCc3cncc(C#N)c3)c(CN3CCCC[C@H]3C(=O)O)cc2Cl)cccc1-c1cccc(OCCC(=O)N2CC[C@@H](O)C2)c1` [Example 1011, (S)-1-(5-chloro-2-((5-cyanopyridin-3-yl)methoxy)-4-((3′-(3-((R)-3-hydroxypyrrolidin-1-yl)-3-oxopropoxy)-2-methyl-[1,1′-biphenyl]-3-yl)methoxy)benzyl)piperidine-2-carboxylic Acid], for which the IC50 is 100 to 2000 nM.
Take `Cc1c(COc2cc(OCc3cncc(C#N)c3)c(CN3CC[C@H]3C(=O)O)cc2Cl)cccc1-c1cccc(OCCC(=O)N2CC[C@@H](O)C2)c1` [Example 1012, (S)-1-(5-chloro-2-((5-cyanopyridin-3-yl)methoxy)-4-((3′-(3-((R)-3-hydroxypyrrolidin-1-yl)-3-oxopropoxy)-2-methyl-[1,1′-biphenyl]-3-yl)methoxy)benzyl)azetidine-2-carboxylic Acid]: the half-maximal inhibitory concentration (IC50) lay within 0.21 to 10 nM.
The same measure, in the same setting: under `Cc1c(COc2cc(OCc3cncc(C#N)c3)c(CN3CCCC[C@H]3C(=O)O)cc2Cl)cccc1-c1cccc(OCCCN2CC[C@@H](O)C2)c1` [Example 1013, (S)-1-(5-chloro-2-((5-cyanopyridin-3-yl)methoxy)-4-((3′-(3-((R)-3-hydroxypyrrolidin-1-yl)propoxy)-2-methyl-[1,1′-biphenyl]-3-yl)methoxy)benzyl)piperidine-2-carboxylic Acid] stands 0.21 to 10 nM.

For the origin of these results see patent publication US10745382B2 (BRISTOL-MYERS SQUIBB COMPANY, priority 2015, dated 2020).
